This test concerns the target T1, Recombinant human TPH1 (MBP tagged) (Homo sapiens, UniProt P17752).
T1 construct: cloning full length human TPH1 cDNA in to a bacterial pMAL-c5E expression vector; made in house; host or cells: E. coli BL21 (DE3)
T1 sequence (P17752 1-444): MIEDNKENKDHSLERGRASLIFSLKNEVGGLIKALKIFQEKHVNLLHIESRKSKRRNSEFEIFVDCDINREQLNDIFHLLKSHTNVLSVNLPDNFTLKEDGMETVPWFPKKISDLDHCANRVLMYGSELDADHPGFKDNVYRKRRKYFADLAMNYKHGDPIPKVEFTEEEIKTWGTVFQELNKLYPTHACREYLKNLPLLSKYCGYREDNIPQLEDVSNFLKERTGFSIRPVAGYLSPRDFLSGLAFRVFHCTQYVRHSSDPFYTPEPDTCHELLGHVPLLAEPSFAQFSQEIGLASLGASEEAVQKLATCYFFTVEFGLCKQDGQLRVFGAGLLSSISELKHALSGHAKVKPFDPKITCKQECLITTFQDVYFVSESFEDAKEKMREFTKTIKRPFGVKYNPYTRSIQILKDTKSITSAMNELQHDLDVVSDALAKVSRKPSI
Kind of test: TPH1 in vitro inhibition assay (kinetic fluorescence). In kind it is biochemical. The source says: Recombinant human TPH1 (rTPH1 GenBank™ accession no. NP_004179) was expressed by cloning full length human TPH1 cDNA in to a bacterial pMAL-c5E expression vector to produce maltose-binding protein (MBP) TPH1 fusion proteins. E. coli BL21 (DE3) containing pMAL-c5E-TPH1 was used for protein generation and the recombinant protein was purified utilizing standard column chromatography techniques. The MBP tagged TPH1 (MBP-TPH1) was used directly to screen compounds as described below. Recombinant human TPH2 (rTPH2 GenBank™ accession no. 173353), PheOH (rPheOH GenBank™ accession no. K03020) and TH (rTH GenBank™ accession no. L20679) with an MBP tag were produced similarly.
TPH1 activities were measured in an assay containing 200 mM ammonium sulfate, 7 mM DTT, 50 μg/mL catalase, 25 μM ammonium iron sulfate, 50 mM MES, pH 7.1. Test compounds were diluted in 100% DMSO and added to the assay plate in 1 μL aliquots at 100× final concentration. Fifty microliters of assay buffer containing 30 nM TPH1 enzyme (MBP tagged) were added to the plate wells containing the test compound by the use of an Eppendorf repeater pipette. The reaction was initiated by the addition of 50 μL of assay buffer containing 60 μM tryptophan and 72 μM 6-6-methyltetra-hydropterin (2× final concentration) by the use of a Multidrop (LabSystems). Final reaction conditions were 15 nM TPH1 enzyme, 30 μM tryptophan, 36 μM 6-methyltetra-hydropterin, 200 mM ammonium sulfate, 7 mM DTT, […], 25 μM ferrous ammonium sulfate, 50 mM MES, pH 7.1, with atmospheric oxygen at room temperature. The plate was immediately placed onto an M5 plate reader (Molecular Devices) for kinetic fluorescence measurement using an excitation setting of 300 nm and an emission setting of 335 nm. Fluorescence reads are recorded in kinetic mode for 300 seconds (5 minutes).
Kinetic assay data for compounds at specific concentrations was translated into slopes using the Softmax Pro software on a Spectramax reader, and compound inhibition slopes were compared with wells containing enzyme, substrate and cofactor in the absence of inhibitor (100%), and wells containing substrate and cofactor in the absence of enzyme (0%). DMSO concentration in the assay was 1%. […] IC50's were determined using Graphpad Prism.

Where [1] appears, read: read-out: TPH1 Range (TPH1 inhibition IC50).

Where two headings read alike, the source gives them in different places.

A word on the IC50: it is the midpoint of a concentration-inhibition curve. Regarding `CCOc1cc(-c2ccc([C@@H](Oc3cc(N4CCC5(CC4)CN[C@H](C(=O)O)C5)nc(N)n3)C(F)(F)F)c(-n3ccc(C)n3)c2)ccc1F` [Example 1bg, (S)-8-(2-amino-6-((R)-1-(3′-ethoxy-4′-fluoro-3-(3-methyl-1H-pyrazol-1-yl)-[1,1′-biphenyl]-4-yl)-2,2,2-trifluoroethoxy)pyrimidin-4-yl)-2,8-diazaspiro[4.5]decane-3-carboxylic acid], under setting [1], the IC50 was less than 50 nM.

Consider `Cc1ccn(-c2cc(-c3cc(C)c(Cl)c(C)c3)ccc2[C@@H](Oc2cc(N3CCC4(CC3)CN[C@H](C(=O)O)C4)nc(N)n2)C(F)(F)F)n1` [Example 1bh, (S)-8-(2-amino-6-((R)-1-(4′-chloro-3′,5′-dimethyl-3-(3-methyl-1H-pyrazol-1-yl)-[1,1′-biphenyl]-4-yl)-2,2,2-trifluoroethoxy)pyrimidin-4-yl)-2,8-diazaspiro[4.5]decane-3-carboxylic acid], for which the IC50 under setting [1] is less than 50 nM. In the case of `Cc1ccn(-c2cc(-c3cc(Cl)cc(Cl)c3)ccc2[C@@H](Oc2cc(N3CCC4(CC3)CN[C@H](C(=O)O)C4)nc(N)n2)C(F)(F)F)n1` [Example 1bi, (S)-8-(2-amino-6-((R)-1-(3′,5′-dichloro-3-(3-methyl-1H-pyrazol-1-yl)-[1,1′-biphenyl]-4-yl)-2,2,2-trifluoroethoxy)pyrimidin-4-yl)-2,8-diazaspiro[4.5]decane-3-carboxylic acid], the IC50 under setting [1] was less than 50 nM. As to `Cc1cc(-c2ccc([C@@H](Oc3cc(N4CCC5(CC4)CN[C@H](C(=O)O)C5)nc(N)n3)C(F)(F)F)c(-n3ccc(C)n3)c2)cc(C(C)(C)C)c1` [Example 1bj, (S)-8-(2-amino-6-((R)-1-(3′-(tert-butyl)-5′-methyl-3-(3-methyl-1H-pyrazol-1-yl)-[1,1′-biphenyl]-4-yl)-2,2,2-trifluoroethoxy)pyrimidin-4-yl)-2,8-diazaspiro[4.5]decane-3-carboxylic acid], the IC50 under setting [1] was in the range of 50 to 300 nM. `Cc1ccn(-c2cc(-c3cccc(Cl)c3)ccc2[C@@H](Oc2cc(N3CCC4(CC3)CN[C@H](C(=O)O)C4)nc(N)n2)C(F)(F)F)n1` [Example 1bk, (S)-8-(2-amino-6-((R)-1-(3′-chloro-3-(3-methyl-1H-pyrazol-1-yl)-[1,1′-biphenyl]-4-yl)-2,2,2-trifluoroethoxy)pyrimidin-4-yl)-2,8-diazaspiro[4.5]decane-3-carboxylic acid]: the IC50 under setting [1] was less than 50 nM. On the same count and under the same terms, the figure for `Cc1ccn(-c2cc(-c3ccc(C(F)(F)F)c(Cl)c3)ccc2[C@@H](Oc2cc(N3CCC4(CC3)CN[C@H](C(=O)O)C4)nc(N)n2)C(F)(F)F)n1` [Example 1bl, (S)-8-(2-amino-6-((R)-1-(3′-chloro-3-(3-methyl-1H-pyrazol-1-yl)-4′-(trifluoromethyl)-[1,1′-biphenyl]-4-yl)-2,2,2-trifluoroethoxy)pyrimidin-4-yl)-2,8-diazaspiro[4.5]decane-3-carboxylic acid] is less than 50 nM. For the compound `COc1ccc(-c2ccc([C@@H](Oc3cc(N4CCC5(CC4)CN[C@H](C(=O)O)C5)nc(N)n3)C(F)(F)F)c(-n3ccc(C)n3)c2)cc1` [Example 1bm, (S)-8-(2-amino-6-((R)-2,2,2-trifluoro-1-(4′-methoxy-3-(3-methyl-1H-pyrazol-1-yl)-[1,1′-biphenyl]-4-yl)ethoxy)pyrimidin-4-yl)-2,8-diazaspiro[4.5]decane-3-carboxylic acid], under “TPH1 Range (TPH1 inhibition IC50)”, the IC50 is less than 50 nM. As to `CCOc1ccc(-c2ccc([C@@H](Oc3cc(N4CCC5(CC4)CN[C@H](C(=O)O)C5)nc(N)n3)C(F)(F)F)c(-n3ccc(C)n3)c2)cc1F` [Example 1bn, (S)-8-(2-amino-6-((R)-1-(4′-ethoxy-3′-fluoro-3-(3-methyl-1H-pyrazol-1-yl)-[1,1′-biphenyl]-4-yl)-2,2,2-trifluoroethoxy)pyrimidin-4-yl)-2,8-diazaspiro[4.5]decane-3-carboxylic acid], under setting [1], the IC50 is less than 50 nM. The same measure, in the same setting: the value for `Cc1ccn(-c2cc(-c3cc(F)c(F)c(F)c3)ccc2[C@@H](Oc2cc(N3CCC4(CC3)CN[C@H](C(=O)O)C4)nc(N)n2)C(F)(F)F)n1` [Example 1bo, (S)-8-(2-amino-6-((R)-2,2,2-trifluoro-1-(3′,4′,5′-trifluoro-3-(3-methyl-1H-pyrazol-1-yl)-[1,1′-biphenyl]-4-yl)ethoxy)pyrimidin-4-yl)-2,8-diazaspiro[4.5]decane-3-carboxylic acid] was 50 to 300 nM; that for `Cc1ccn(-c2cc(-c3ccc(C)c(Cl)c3)ccc2[C@@H](Oc2cc(N3CCC4(CC3)CN[C@H](C(=O)O)C4)nc(N)n2)C(F)(F)F)n1` [Example 1bp, (S)-8-(2-amino-6-((R)-1-(3′-chloro-4′-methyl-3-(3-methyl-1H-pyrazol-1-yl)-[1,1′-biphenyl]-4-yl)-2,2,2-trifluoroethoxy)pyrimidin-4-yl)-2,8-diazaspiro[4.5]decane-3-carboxylic acid] was less than 50 nM; that for `Cc1ccn(-c2cc(-c3ccc(OC(F)(F)F)c(C)c3)ccc2[C@@H](Oc2cc(N3CCC4(CC3)CN[C@H](C(=O)O)C4)nc(N)n2)C(F)(F)F)n1` [Example 1bq, (S)-8-(2-amino-6-((R)-2,2,2-trifluoro-1-(3′-methyl-3-(3-methyl-1H-pyrazol-1-yl)-4′-(trifluoromethoxy)-[1,1′-biphenyl]-4-yl)ethoxy)pyrimidin-4-yl)-2,8-diazaspiro[4.5]decane-3-carboxylic acid] was less than 50 nM. On the same count and under the same terms, the value for `Cc1ccn(-c2cc(-c3ccc(OC(C)C)c(Cl)c3)ccc2[C@@H](Oc2cc(N3CCC4(CC3)CN[C@H](C(=O)O)C4)nc(N)n2)C(F)(F)F)n1` [Example 1bv, (S)-8-(2-amino-6-((R)-1-(3′-chloro-4′-isopropoxy-3-(3-methyl-1H-pyrazol-1-yl)-[1,1′-biphenyl]-4-yl)-2,2,2-trifluoroethoxy)pyrimidin-4-yl)-2,8-diazaspiro[4.5]decane-3-carboxylic acid] was less than 50 nM; that for `Cc1ccn(-c2cc(-c3ccc4ccccc4c3)ccc2[C@@H](Oc2cc(N3CCC4(CC3)CN[C@H](C(=O)O)C4)nc(N)n2)C(F)(F)F)n1` [Example 1bw, (S)-8-(2-amino-6-((R)-2,2,2-trifluoro-1-(2-(3-methyl-1H-pyrazol-1-yl)-4-(naphthalen-2-yl)phenyl)ethoxy)pyrimidin-4-yl)-2,8-diazaspiro[4.5]decane-3-carboxylic acid] was 50 to 300 nM.

In the case of `Cc1ccn(-c2cc(-c3ccc(OCc4ccccc4)c(F)c3)ccc2[C@@H](Oc2cc(N3CCC4(CC3)CN[C@H](C(=O)O)C4)nc(N)n2)C(F)(F)F)n1` [Example 1bx, (S)-8-(2-amino-6-((R)-1-(4′-(benzyloxy)-3′-fluoro-3-(3-methyl-1H-pyrazol-1-yl)-[1,1′-biphenyl]-4-yl)-2,2,2-trifluoroethoxy)pyrimidin-4-yl)-2,8-diazaspiro[4.5]decane-3-carboxylic acid], the IC50 under setting [1] is less than 50 nM.

`Cc1ccn(-c2cc(-c3ccc(OC(C)C)c(C)c3)ccc2[C@@H](Oc2cc(N3CCC4(CC3)CN[C@H](C(=O)O)C4)nc(N)n2)C(F)(F)F)n1` [Example 1by, (S)-8-(2-amino-6-((R)-2,2,2-trifluoro-1-(4′-isopropoxy-3′-methyl-3-(3-methyl-1H-pyrazol-1-yl)-[1,1′-biphenyl]-4-yl)ethoxy)pyrimidin-4-yl)-2,8-diazaspiro[4.5]decane-3-carboxylic acid]: under setting [1], the IC50 was less than 50 nM.

The values are drawn from patent publication US11759462B2, “Spirocyclic compounds as tryptophan hydroxylase inhibitors” (priority 2013, dated 2023).
